From patent US4088778A, “Method for the treatment of hypertension” (priority 1975, dated 1978)

Experiments:
[1] = Clinical Experiment II: urine test; assay type: in vivo, human patients
Procedure: (§1) 75 patients of hypertension or arteriosclerosis having subjective symptoms were tested. Some of them suffered from complications such as ischemia heart disease and cerebral thrombosis. They are detailed in Table 11.
(§2) Two capsules were administered at one time, and the administration was conducted 3 times per day after eating. The duration of the continuous administration was 4 weeks. Combined use of drugs having the same functions as those of TN (vitamin E drugs, nicotinic acid, its derivatives and peripheral vasolidators) and minor tranquilizers was prohibited.

[2] = Clinical Experiment II: kidney function test; assay type: in vivo, human patients; settings: in mg/dL (unit assumed)
Procedure: as §1, §2
The kidney function test results are shown in Table 17, from which it will readily be understood that the variation of BUN values was within the normal region.

[3] = Experiment on young SHR (rats of spontaneous hypertension); assay type: in vivo, rats (7-week-old female SHR); settings: for dead rats within 6 weeks from the start of the administration: control 5 among 11; for dead rats within 2 weeks from the start of administration: judged pneumonia, control 3
Procedure: Experiments were conducted by using two classes of rats of spontaneous hypertension (hereinafter referred to as "SHR"; provided by Nippon Rat K.K.) differing in the age. In the first experiment, 9-month-old chronic […] SHR (hereinafter referred to as "old SHR"), and in the second experiment, 7-week-old SHR in which hypertension was advancing (hereinafter referred to as "young SHR") was used.
(B) Experiment on Young SHR:
72 of 7-week-old female SHR (having a body weight of 130 to 175 g) were divided into 9 cages, each consisting of 8 rats. Service water was given as drinking water to rats of two cages among these 9 cages, and these rats were compared with other rats which were given a 1% aqueous solution of sodium chloride as drinking water. In each of the […] cages of rats to which the sodium chloride solution was given, no agent was administered to 2 of 8 rats, 20 mg/Kg of TN was administered to another 2 rats, 100 mg/Kg of TN was administered to still another 2 rats, and 88 mg/Kg of TA was administered to the remaining 2 rats.
After 2 weeks' feeding with the sodium chloride solution, administration was conducted once a day. Within 2 weeks from the start of administration,3 rats in the Control (non-administered) group, one rat in the 20 mg/Kg TN administered group, 3 rats in the 100 mg/Kg TN administered group, 3 rats in the 88 mg/Kg TA administered group and 4 rats in the service water given group were dead. In view of the body weight decrease and the snivel secretion and from the results of autopsy, it was judged that each of them died of pneumonia. The rats that died prior to initiation of the administration were not taken in account in evaluating the experimental results.

SMILES: Cc1c(C)c2c(c(C)c1OC(=O)c1cccnc1)CCC(C)(CCCC(C)CCCC(C)CCCC(C)C)O2 (racemic) [TN, dl-α-tocopheryl nicotinate]
- urine specific Gravity, Average Value ([1]; after administration, N 25, S.D. ±5.34): 1017.92
- urine specific Gravity, Average Value ([1]; before administration, N 25, S.D. ±5.56): 1017.56
- BUN, Average Value ([2]; after administration, N 27, S.D. ±8.48): 14.99
- BUN, Average Value ([2]; before administration, N 31, S.D. ±6.23): 14.74
- dead rats within 6 weeks from the start of the administration ([3]; 20 mg/kg TN, among 13 rats): 3 rats
- dead rats within 2 weeks from the start of administration ([3]; 20 mg/kg TN): one
- dead rats within 6 weeks from the start of the administration ([3]; 100 mg/kg TN, among 11 rats): 4 rats
- dead rats within 2 weeks from the start of administration ([3]; 100 mg/kg TN): 3 rats
